Measurements published in the supplement of paper PMC3493320.
“And” between values parts separate entries of the source, which are not always exact repeats. Equal values may be shown once.

test system: NCI-H295R; assay: maximal response (efficacy) relative to DMSO (0%) and doxorubicin (-100%); higher = less growth inhibition; conditions: 48 h

In order of rising maximal response:
1. COc1cc(C=C2CCCC(=Cc3ccc(O)c(OC)c3)C2=O)ccc1O  -130%
2. O[C@@H]1C4=C(C)[C@@H](OC([C@H](O)[C@H]([C@@]6=CC=CC=C6)NC(OC(C)(C)C)=O)=O)C[C@@](C(C)4C)(O)[C@@H](OC(C5=CC=CC=C5)=O)[C@@]([C@]2(OC(C)=O)CO[C@@H]2C[C@@H]3O)([H])[C@]3(C)C1=O  -59.5%
3. CCc1oc2ccccc2c1C(=O)c1cc(Br)c(O)c(Br)c1  -59.3%
4. O=C(Nc1ncc([N+](=O)[O-])s1)c1cccs1  -58.5%
5. C/C(=C\c1csc(C)n1)[C@@H]1C[C@@H]2O[C@]2(C)CCC[C@H](C)[C@H](O)[C@@H](C)C(=O)C(C)(C)[C@@H](O)CC(=O)O1  -57.6%
6. O=C3C1=C(NC(N)=N3)NC=C1CCC2=CC=C(C(N[C@H]([C@@]([O-])=O)CCC([O-])=O)=O)C=C2.[Na+].[Na+]  -56.4%
7. CC(C)OC(=O)Nc1ccc2[nH]c(-c3cscn3)nc2c1  -56.3%
8. CCCSc1ccc2[nH]c(NC(=O)OC)nc2c1  -55.1%
9. COC(=O)Nc1nc2cc(Sc3ccccc3)ccc2[nH]1  -54.1%
10. COC(=O)Nc1nc2cc(C(=O)c3cccs3)ccc2[nH]1  -53.8%
11. Nc1c(/N=N/c2ccc(-c3ccc(/N=N/c4cc(S(=O)(=O)[O-])c5ccccc5c4N)cc3)cc2)cc(S(=O)(=O)[O-])c2ccccc12.[Na+].[Na+]  -53.2%
12. CN[C@H]1CCc2cc(OC)c(OC)c(OC)c2-c2ccc(OC)c(=O)cc21  -53.1%
13. COc1cc([C@@H]2c3cc4c(cc3[C@H](O)[C@H]3COC(=O)[C@H]23)OCO4)cc(OC)c1OC  -50.8%
14. CC[C@@]1([C@@H]2O[C@@H]([C@H]3O[C@@](O)(CO)[C@H](C)C[C@@H]3C)C[C@@H]2C)CC[C@H]([C@]2(C)CC[C@]3(C[C@H](O)[C@@H](C)[C@@H]([C@@H](C)[C@@H](OC)C(C)C(=O)[O-])O3)O2)O1.[Na+] (some centres not stated)  -50.4%
15. Cc1c(C(=O)O)c(O)cc2c1C(=O)c1c(O)c([C@@H]3O[C@H](CO)[C@@H](O)[C@H](O)[C@H]3O)c(O)c(O)c1C2=O  -50.2%
16. O=S(=O)([O-])c1ccc2c(/N=N/c3ccc(S(=O)(=O)[O-])c4ccccc34)c(O)c(S(=O)(=O)[O-])cc2c1.[Na+].[Na+].[Na+]  -50.2%
17. COC(=O)Nc1nc2cc(C(=O)c3ccccc3)ccc2[nH]1  -50.2%
18. COc1cc2c(c(OC)c1OC)-c1ccc(OC)c(=O)cc1[C@@H](NC(C)=O)CC2  -49.9%
19. COCCOC(=O)C1=C(C)NC(C)=C(C(=O)OC/C=C/c2ccccc2)C1c1cccc([N+](=O)[O-])c1 (configuration not stated)  -49.9%
20. CCCOc1ccc2[nH]c(NC(=O)OC)nc2c1  -48.4%
21. COC(=O)C1=C(C)NC(C)=C(C(=O)OC(C)(C)CN(C)CCC(c2ccccc2)c2ccccc2)C1c1cccc([N+](=O)[O-])c1.Cl (configuration not stated)  -45.6%
22. Nc1ccc(C(=O)Nc2ccccc2N)cc1  -43.9%
23. O=C1C(C(O)=C4C([C@@H](O[C@@H]5O[C@@H](C)[C@@H](O[C@@H]6CCCCO6)[C@@H](N)C5)C[C@@]([C@](CO)=O)(O)C4)=C3O)=C3C(C2=C1C=CC=C2OC)=O  -43%
24. CCC/C=C/C=C/C(=O)O[C@H]1/C(=C/C(=O)OC)C[C@H]2C[C@H]([C@@H](C)O)OC(=O)C[C@H](O)C[C@@H]3C[C@H](OC(C)=O)C(C)(C)[C@](O)(C[C@@H]4C/C(=C/C(=O)OC)C[C@H](/C=C/C(C)(C)[C@]1(O)O2)O4)O3  -41.4%
25. O=C(NC(=O)c1c(F)cccc1F)Nc1ccc(Cl)c(Oc2ncc(C(F)(F)F)cc2Cl)c1  -39.7%
26. N[C@H](C(=O)O)[C@@H]1CC(Cl)=NO1  -39.1%
27. CNCC/C=C2/C1=C(CCC3=C2C=CC=C3)C=CC=C1.Cl  -38.9%
28. O=C2O[C@](C#CC3CC3)([C@](F)(F)F)C1=CC(Cl)=CC=C1N2  -38%
29. F\C1=C\N(C(=O)NC1=O)[C@H]2C[C@H](O)[C@@H](CO)O2  -37.6%
30. O=C1c2cccc(O)c2C(=O)c2c(O)cccc21  -35.8%
31. O=C(O)c1cc(O)c2c(c1)[C@H]([C@H]1c3cc(C(=O)O)cc(O)c3C(=O)c3c(O[C@@H]4O[C@H](CO)[C@@H](O)[C@H](O)[C@H]4O)cccc31)c1cccc(O[C@@H]3O[C@H](CO)[C@@H](O)[C@H](O)[C@H]3O)c1C2=O  -34.5%
32. CCC(CC)(CC(=O)Nc1cccc(/C=C/c2nc(C3CCC3)cs2)c1)C(=O)O  -34.3%
33. CCNC(=O)N1CCN(CCCC(c2ccc(F)cc2)c2ccc(F)cc2)CC1.Cl  -34.2%
34. CC(=O)[O][Co][N]1/C2=C(/C)C3=N/C(=C\C4=NC(=C(/C)C5=N[C@H]([C@H](CC(N)=O)[C@@]5(C)CCC(=O)NCC(C)OP(=O)(O)O[C@H]5[C@@H](O)[C@@H](n6cnc7cc(C)c(C)cc76)O[C@@H]5CO)[C@@]1(C)[C@@](C)(CC(N)=O)[C@@H]2CCC(N)=O)/[C@@H](CCC(N)=O)C4(C)C)[C@@H](CCC(N)=O)[C@]3(C)CC(N)=O (some centres not stated)  -34.1%
35. C[C@]12C/C(=C/O)C(=O)C[C@@H]1CC[C@@H]1[C@@H]2CC[C@@]2(C)[C@H]1CC[C@]2(C)O  -34.1%
36. C[C@]12CCC(=O)C=C1[C@@H]1C[C@@H]1[C@H]1[C@@H]3[C@@H]4C[C@@H]4[C@@]4(CCC(=O)O4)[C@@]3(C)CC[C@@H]12  -33.2%
37. O=C(N/N=C/c1ccccc1O)c1ccncc1  -33.1%
38. COC(=O)C1=C(C)NC(C)=C(C(=O)OCC(C)C)C1c1ccccc1[N+](=O)[O-] (configuration not stated)  -32.8%
39. O=[N+]([O-])c1cc(I)c(O)c(I)c1  -32.6%
40. CCCCN(CCCC)CC(O)c1cc(Cl)cc2c1-c1ccc(Cl)cc1/C2=C/c1ccc(Cl)cc1 (configuration not stated)  -31.5%
41. O=C(O)Cc1cc(I)c(Oc2ccc(O)c(I)c2)c(I)c1  -31.4%
42. Oc1ccc(O)cc1  -31.2%
43. COc1cc(C(=O)OCCCN2CCCN(CCCOC(=O)c3cc(OC)c(OC)c(OC)c3)CC2)cc(OC)c1OC  -31.2%
44. CN(C)CCCN1c2ccccc2CCc2ccc(Cl)cc21  -31.2%
45. CC(=O)Oc1ccc2c(c1)CC[C@@H]1[C@@H]2CC[C@]2(C)[C@@H](O)CC[C@@H]12  -30.8%
46. CCOC(=O)Oc1c(OC)cc(cc1OC)C(=O)O[C@@H]4C[C@@H]5CN6CC\C3=C(\Nc2cc(OC)ccc23)[C@H]6C[C@@H]5[C@H](C(=O)OC)[C@H]4OC  -30.6%
47. COC1=CC(=O)C[C@@H](C)[C@]12Oc1c(Cl)c(OC)cc(OC)c1C2=O  -30.5%
48. CCOC(=O)[C@@H](CCc1ccccc1)N[C@@H]1CCc2ccccc2N(CC(=O)O)C1=O.Cl  -30.1%
49. Nc1nc(Cl)nc2c1ncn2[C@@H]1O[C@H](CO)[C@@H](O)[C@@H]1F  -29.5%
50. COc1c(C)c2c(c(O)c1C/C=C(\C)CCC(=O)O)C(=O)OC2  -29.5%
51. O=[N+]([O-])c1c(Cl)cccc1-c1c[nH]cc1Cl  -29.2%
52. Cl.Cl/C(=C\n1cncn1)c1ccc(Cl)cc1Cl  -28.8%
53. COc1cc2c(cc1OC)C(C(C(=O)N(CCc1ccc(OC)c(OC)c1OC)CCc1ccc(OC)c(OC)c1OC)c1ccccc1)=NCC2.Cl (configuration not stated)  -28.4%
54. CC(C)[C@H](N)C(=O)OCC(CO)OCn1cnc2c(=O)nc(N)[nH]c21.Cl (some centres not stated)  -28.1%
55. CN1C(=O)C(O)N=C(c2ccccc2)c2cc(Cl)ccc21 (configuration not stated)  -27.8%
56. O[C@@]3(C#C)CC[C@H]2[C@@H]4CC/C1=C/c5oncc5C[C@]1(C)[C@H]4CC[C@@]23C  -27.4%
57. CCN(CC)C(=S)SSC(=S)N(CC)CC  -27.3%
58. COC(=O)c1ccccc1C(=O)c1ccc(OCCN2CCCCC2)cc1.Cl  -26.8%
59. CN1CCC(CN2c3ccccc3Sc3ccccc32)C1.Cl (configuration not stated)  -26.6%
60. CC(=O)O[C@H]\1CC[C@H]4C(=C/1)/CC[C@@H]2[C@@H]4CC[C@]3(C)[C@@](CC[C@@H]23)(C#C)OC(C)=O  -26.3%
61. N[C@@H](Cc1cc(I)c(Oc2cc(I)c(O)c(I)c2)c(I)c1)C(=O)O  -25.6%
62. O=c1[nH]c2ccccc2n1CCCN1CCC(n2c(=O)[nH]c3cc(Cl)ccc32)CC1  -25.4%
63. CCC(O)c1ccccc1 (configuration not stated)  -25.2%
64. Clc1ccc(C(Cn2ccnc2)OCc2csc3c(Cl)cccc23)c(Cl)c1.O=[N+]([O-])O (configuration not stated)  -24.9%
65. CCc1cc(Cl)c(OC)c(C(=O)NC[C@@H]2CCCN2CC)c1O.Cl  -24.8%
66. CCCCOc1ccc(CC(=O)NO)cc1  -24%
67. COC(=O)C1=C(C#N)NC(C)=C(C(=O)OC(C)C)C1c1cccc([N+](=O)[O-])c1 (configuration not stated)  -23.9%
68. [O-][n+]1ccccc1SSc1cccc[n+]1[O-]  -23.5%
69. COCc1c(C(C)C)nc(C(C)C)c(/C=C/[C@@H](O)C[C@@H](O)CC(=O)[O-])c1-c1ccc(F)cc1.[Na+]  -23.2%
70. CCCc1nc2c(C)cc(-c3nc4ccccc4n3C)cc2n1Cc1ccc(-c2ccccc2C(=O)O)cc1  -22.7%
71. NC(=O)N/N=C/c1ccc([N+](=O)[O-])o1  -20.7%
72. Nc1ncnc2c1ncn2[C@@H]1O[C@H](COP(=O)(O)O)[C@@H](O)[C@@H]1O  22%
73. O=C([O-])C1=C(CSc2nnnn2CS(=O)(=O)[O-])CS[C@@H]2[C@H](NC(=O)[C@H](O)c3ccccc3)C(=O)N12.[Na+].[Na+]  25.5%
74. OC[C@H]1O[C@@H](n2cnc3c(O)ncnc32)[C@H](O)[C@@H]1O  26.5%
75. Nc1ncnc2[nH]cnc12  30.9%
76. CC(C)(COP(=O)([O-])OP(=O)([O-])OC[C@H]1O[C@@H](n2cnc3c(N)ncnc32)[C@H](O)[C@@H]1OP(=O)([O-])O)C(O)C(=O)NCCC(=O)NCCS.O.O.[Li+].[Li+].[Li+] (some centres not stated)  33%

`O[C@@]1(CC)C[C@H](C2)C[C@@]([C@]7=C(OC)C=C6N(C)[C@]5([H])[C@@](C6=C7)(CC9)[C@](N9CC=C8)([H])[C@]8(CC)[C@@H](OC(C)=O)[C@@](O)5[C@@](OC)=O)([C@](OC)=O)C(NC4=CC=CC=C34)=C3CCN2C1.O=S(O)(O)=O` was tested, and the maximal response was -54.7% and -52.9%.
